Data set [1] concerns α-SMA expression induced by TGFβ1 in dermal fibroblasts. Description: Fibrosis inhibition evaluation 1: western blotting of α-SMA in dermal fibroblasts. The following applies: compound 011 0.1, 1, 10 μM (especially 10 μM); Pyr 2 10 μM; TGFβ1 10 ng/ml, 48 hours. Format: cell-based, mice. Here is the method: The expression of α-smooth muscle actin (α-SMA) in fibroblasts was evaluated by western blotting. Dermal fibroblasts were isolated from 1 to 3-day-old mice, and 2.5×10^5 cells were seeded in a 12-well plate. After 24 hours, the medium was replaced with a medium free of fetal bovine serum, and the cells were cultured for another 24 hours. Thereafter, 10 ng/ml of transforming growth factor β1 (TGFβ1) was added, and the cells were cultured for 48 hours. At the same time as TGFβ1 was added, a test compound (compound 011) of a predetermined concentration (0.1 μM, 1 μM, 10 μM) and 10 μM of Pyr 2 or DMSO (solvent control) were also added. […] The cultured cells were dissolved in a lysis buffer (140 mM NaCl, 20 mM Tris-HCl pH 7.8, 1% Triton-X100, 0.05% sodium deoxycholate, 0.1% SDS, 2 mM EDTA, proteinase inhibitor cocktail), and separated by SDS-PAGE, followed by detecting α-SMA using anti-α-SMA antibody (Sigma) as the primary antibody and anti-mouse IgG antibody (cell signaling) fused with horse radish peroxidase as the secondary antibody.

For data set [2], the system named is dermal fibroblasts. Kind of data set: Fibrosis inhibition evaluation 1: cell morphology observation of dermal fibroblasts. The following applies: dermal fibroblasts cultured 48 hours with TGFβ1. It is filed as cell-based, mice.
Data set [3] deals with α-SMA expression induced by TGFβ2 in cardiac fibroblasts. Kind of data set: Fibrosis inhibition evaluation 2: immunofluorescent staining of α-SMA in cardiac fibroblasts. It is filed as cell-based, rats. The following applies: 10 μM, TGFβ2 2 ng/ml, 48 hours, FIG. 8. Here is the method: In the same manner as in Test Example 5, dermal fibroblasts were isolated from mice, and sterilized cover glass (diameter: 12 mm) was placed in a 12-well plate. On the cover glass, 2.5×10^5 cells were seeded and grown. After 24 hours, the medium was replaced with a medium free of fetal bovine serum, and the cells were cultured for another 24 hours. Separately, cardiac fibroblasts were isolated from 1 to 2-day-old rats and treated in the same manner as for the dermal fibroblasts. Thereafter, 10 ng/ml TGFβ1 was added to the dermal fibroblasts, and 2 ng/ml TGFβ2 was added to the cardiac fibroblasts, followed by culturing the cells for 48 hours. At the same time as TGFβ was added, 10 μM of a test compound (compound 011), 10 μM of Pyr 2 (conventional inhibitor), or DMSO (solvent control) was also added. Separately, cultured cells to which TGFβ-free phosphate buffered saline (PBS) was added were also prepared. […] After blocking with 1% bovine serum albumin, α-SMA was detected using anti-α-SMA antibody (Sigma) as the primary antibody and anti-mouse IgG antibody (Molecular Probes) fused with Alexa 488 as the secondary antibody, and an image was acquired using a fluorescence microscope (Keyence) with a 20× objective lens. The average fluorescence brightness (fluorescence intensity/pixel) per cell area was calculated and analyzed using Image J software.

With `O=C(O)c1cnc(N2CCN(c3noc4cccc(C(F)(F)F)c34)CC2)c(Cl)c1` [Compound 011, 5-chloro-6-(4-(4-(trifluoromethyl)benzo[d]isoxazol-3-yl)piperazin-1-yl) nicotinic acid], the “expression of α-SMA induced by TGFβ1 (western blotting)” value in data set [1] is “potently inhibited the expression of α-SMA induced by TGFβ1”. Moreover, in data set [2], the “cell morphology / cell damage by microscopic observation” value is “no change in cell morphology and no cell damage”. Further, in data set [3], the “expression of α-SMA induced by TGFβ (immunofluorescent staining)” value is on record as “almost completely suppressed the expression of α-SMA”.
